The inhibition is the change of the read-out against control, counted positive when it falls.

The text below walks through data of publication PMC6152678, “In Vitro Comparative Study of the Inhibitory Effects of Mangiferin and Its Aglycone Norathyriol towards UDP-Glucuronosyl Transferase (UGT) Isoforms” (Molecules : A Journal of Synthetic Chemistry and Natural …, 2017).

Series [1] has as its target T1, UGT1A8 (Homo sapiens, UniProt Q9HAW9).
T1 construct: purchased BD Gentest Corp. (Woburn, MA, USA); host or cells: baculovirus-infected insect cells
T1 sequence (Q9HAW9 26-530): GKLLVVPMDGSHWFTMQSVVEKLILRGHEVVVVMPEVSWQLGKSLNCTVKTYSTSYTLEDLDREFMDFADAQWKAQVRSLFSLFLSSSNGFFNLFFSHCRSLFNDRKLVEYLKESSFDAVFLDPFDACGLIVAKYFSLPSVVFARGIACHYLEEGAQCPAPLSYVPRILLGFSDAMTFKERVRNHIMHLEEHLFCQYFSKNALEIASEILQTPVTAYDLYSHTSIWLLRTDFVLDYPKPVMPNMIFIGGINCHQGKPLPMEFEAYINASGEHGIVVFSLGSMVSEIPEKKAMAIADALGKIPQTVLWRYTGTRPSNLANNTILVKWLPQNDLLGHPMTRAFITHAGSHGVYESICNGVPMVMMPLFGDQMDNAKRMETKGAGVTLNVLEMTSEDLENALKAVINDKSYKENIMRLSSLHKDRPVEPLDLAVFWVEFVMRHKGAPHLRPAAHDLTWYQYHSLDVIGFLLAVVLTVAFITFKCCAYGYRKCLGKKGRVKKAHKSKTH
Description: Inhibition of recombinant UGT-catalyzed 4-MU glucuronidation. Type of series: biochemical. The settings on record: pH 7.4, probe 4-methylumbelliferone (4-MU), 750 μM, 100 μM compound, 4-MU probe substrate, negative = activation.

For series [2] the following is noted: rat, cited from earlier work.
On the set-up of series [3]: method as in PMID 26434292. The settings on record: human, oral 0.9 g mangiferin, cited from earlier work.

Where “and” joins values, the source holds several entries; their conditions need not be identical. Equal values may be shown once. Read-outs that look alike come from different tables or passages of the source.

For `O=c1c2cc(O)c(O)cc2oc2cc(O)c([C@@H]3O[C@H](CO)[C@@H](O)[C@H](O)[C@H]3O)c(O)c12` [MGF, 1,3,6,7-tetrahydroxyxanthone-C-2-β-D-glucoside], the inhibition at 30 min, 100 µM in series [1] is -70.9%. The “maximum concentration in the plasma” value in series [2] (oral MGF 70mg/kg) was 0.19 μg/mL and 0.45 μM; in series [2] (oral MGF 120 mg/kg) it was 8.13 ± 1.96 μg/mL and 19.2 ± 4.64 μM. For the same compound, the “concentration in plasma reached” value in series [3] (about 1 h) is 38.64 ± 6.75 ng/mL and 0.091 ± 0.016 μM. The “time at which the plasma concentration was reached” value in series [3] is “about 1 h”.
For `O=c1c2cc(O)c(O)cc2oc2cc(O)cc(O)c12` [NTR, 1,3,6,7-tetrahydroxyxanthone], the inhibition at 30 min, 100 µM in series [1] turned out to be 57%.
